Patent US9630894B2, “Energy efficient method and apparatus for the extraction of biomolecules from dilute aqueous solution” (DYNASEP INC., priority 2012, dated 2017)

Tests used:
Format in all cases: physicochemical
[1] = CCC extraction with DME of clarified fermentation broth from Clostridium acetobutylicum, GC and DNS assay
Protocol: This example describes three different runs of the CCC with fermentation broth from Clostridium acetobutylicum. […] The fermentation was intentionally interrupted prior to completion.
The extraction column operated at room temperature (˜25° C.) throughout the column. Periodic extract and raffinate samples were taken and analyzed for the constituents in the extract and raffinate discharges.
This example describes three different runs. In all cases, the mass of solvent to the mass of feed ratio (S/F) was 0.9. In all example the fermentation broth was first centrifuged to removal all cellular matter. Thus, the feed solution was clarified. In the case of the first run, the following components were measured via gas chromatograph (GC) analysis using external standard calibration. The external standard was run prior to analyzing the samples to provide individual calibration between peak area and the respective constituent under measure. […] Acetate was the conjugate base of acetic acid. Butyrate was the conjugate base of butyric acid. All components were quantified in the extract and raffinate. Since the extract and raffinate are mostly water and DME dissolves in water to approximately 20 wt. %, the samples were allowed to degas over a 24 hour period.
During the run, samples were taken of the extract and raffinate. In the case of the extract, the bulk DME was removed by reduction of pressure and addition of heat to flash the DME from the water and other solution constituents.
Extract and raffinate samples were collected at periodic intervals during the CCC testing. […] Glucose was measured via a DNS (3,5-dinitrosalicylic acid) assay.
In cases where the extract formed a two phase solution, the extract samples were diluted with distilled water to create a single phase and homogenous sample prior to GC. The dilution factor was then used to correct the GC measurements for concentrations prior to dilution.

[2] = Packed-column extraction of ethanol and ABE solutions with liquid DME, incremental distribution coefficients; settings: for Distribution Coefficient: ABE solution
Protocol: The tests were carried out in a 50-inch long by 0.68-inch internal diameter (ID) column containing stainless steel distillation packing to increase mass transfer between the liquid DME and the aqueous solution. The flow rate of the liquid DME for all the tests was about […], which calculates to a superficial velocity of the liquid DME of ˜0.3 cm/sec.
For each test, about 65 g of a pre-made feed solution was charged to the extraction column, and the column was sealed. DME was introduced into the system and pressure was maintained at 250 psi with the lab pump. Each run was carried out at ambient temperature (about 30° C.), and flow was manually controlled with the pressure-reduction valve.
About ⅓ of the charge was extracted in each test with DME in three fractions, and the raffinate was collected at the end of each test in two fractions. In the event that the concentration of ethanol, or ABE, in the raffinate was not homogeneous along the length of the column, the raffinate was collected in two fractions where RAF#1 was the first (bottom) portion of the raffinate drained and RAF#2 was the remaining (upper) portion.
All samples along with controls were sent to R.D. Laboratories (Washington, Mo.) for gas chromatography (GC) analysis.
The distribution coefficient (DC) is calculated as the ratio of the concentration of the component in the extract (y) phase to the concentration of the component in the raffinate (x) phase, or DC=Cy/Cx. Using the material balance information in the tables above, and the component analysis supplied by R.D. Labs, the incremental DCs for each fraction were calculated. These DCs are calculated using the conservative assumption that there is no dissolved DME in the liquid phase remaining in the extractor.

[3] = Distribution coefficients of ABE mixtures between DME and aqueous phase in agitated pressure vessel, HPLC
Protocol: The compositions of the aqueous mixtures were based on concentrations typically produced in a cellulosic fermentation.
Mixtures were charged to a pressure vessel and agitated to provide adequate contacting between the aqueous and solvent (DME) phases. Heat tape was used to control the temperature of the liquid that was measured by thermocouples. Pressure and temperature measurements were taken every five minutes. After temperature and pressure stabilization agitation was ceased and the liquid phases were allowed to fully settle.
A mass balance was also performed on each component of the ABE and BE mixtures to determine a degree of accuracy of the results.

With `CC(C)=O` [Acetone, acetone] the concentration in sample ([1]; Run 3, Extract Bot, time 31 min) was 7880 µg/mL, the concentration in sample ([1]; Run 3, Extract Bot, time 37 min) was 7900 µg/mL and the concentration in sample ([1]; Run 3, Extract Top, time 31 min) was 7030 µg/mL. The concentration in sample ([1]; Run 3, Extract Top, time 37 min) was 6440 µg/mL, the concentration in sample ([1]; Run 3, Extract, time 22 min) was 2980 µg/mL and the concentration in sample ([1]; Run 3, Extract, time 27 min) was 5300 µg/mL. It also gave a concentration in sample ([1]; Run 3, Extract, time 43 min) of 5140 µg/mL, a concentration in sample ([1]; Run 3, Extract, time 70 min) of 4610 µg/mL and a concentration in sample ([1]; Run 3, Extract, time 74 min) of 4090 µg/mL. For the same molecule, the concentration in sample ([1]; Run 3, Extract, time 78 min) was 3830 µg/mL, the concentration in sample ([1]; Run 3, Extract, time 82 min) was 4630 µg/mL and the concentration in sample ([1]; Run 3, Feed, time 0 min) was 4870 µg/mL. The concentration in sample ([1]; Run 3, Raffinate, time 22 min) was 1200 µg/mL, the concentration in sample ([1]; Run 3, Raffinate, time 27 min) was 400 µg/mL and the concentration in sample ([1]; Run 3, Raffinate, time 31 min) was 310 µg/mL. The concentration in sample ([1]; Run 3, Raffinate, time 37 min) was 140 µg/mL, the concentration in sample ([1]; Run 3, Raffinate, time 43 min) was 150 µg/mL and the concentration in sample ([1]; Run 3, Raffinate, time 70 min) was 110 µg/mL. The concentration in sample ([1]; Run 3, Raffinate, time 74 min) was 600 µg/mL, the concentration in sample ([1]; Run 3, Raffinate, time 78 min) was 820 µg/mL and the concentration in sample ([1]; Run 3, Raffinate, time 82 min) was 460 µg/mL. The “Distribution Coefficient” value ([2]; fraction F1, liquid DME) was 0.24, the “Distribution Coefficient” value ([2]; fraction F2, liquid DME) was 0.16 and the “Distribution Coefficient” value ([2]; fraction F3, liquid DME) was 0.04. The “distribution coefficient, previous measurements” value ([2]; previous results, DME/aqueous) was 0.25, the “distribution coefficient (slope of line fit)” value ([3]; 38° C.) was 1.27 and the DC ([3]; test ABE1, […] C., 104 psig) was 1.28. It also gave a DC ([3]; test ABE2, 38.3 ° C., 102 psig) of 1.25, a DC ([3]; test ABE3, 38.3 ° C., 103 psig) of 1.23 and a DC ([3]; test ABE4, 38.0 ° C., 103 psig) of 1.34.
